Patent publication US9226503B2, “Composition and method for attraction of emerald ash borer Agrilus planipennis fairmaire (coleoptera: buprestidae)” (Her Majesty the Queen in Right of Canada, as represented by …, priority 2011, dated 2016)

What was measured:
[1] = tested on: A. planipennis; assay: Field trapping 2011 experiment 1: dose-response to (3Z)-lactone with (3Z)-hexenol, dark green traps; assay type: in vivo, Agrilus planipennis; conditions: in combination with (3Z)-hexenol
Method: (§1) Two trapping experiments were conducted in green and white ash plantations (F. pennsylvanica Marsch and F. americana L.) located 40-60 km southeast of Sarnia, Ontario in 2011. Trees were 20-30 yr old, 5-8 m tall, 12-18 cm in diameter, and spaced 2-3 m apart within and between rows. Five sites were used in total: four were green ash and the fifth was a white ash plantation. Trees at four of the sites generally appeared healthy with few or no signs of decline and only a few with obvious signs and symptoms of infestation by A. planipennis. At the fifth site, obvious crown decline and signs of infestation were apparent on about one-quarter of trees.
(§2) Green prism sticky traps (0.30 cm×35.00 cm×58.75 cm) (Synergy Semiochemicals Corp., Burnaby, BC) were used in all field trials, deployed using modified umbrella rig spreaders (Zing Products, Westport, Mass.). Traps were spaced 20-25 m apart and lure treatments replicated in randomized complete block designs. Traps were deployed either using ropes tied between two trees or using a single line over a canopy branch, as described further below for each specific experimental objective. Traps were typically checked every 2 wk and A. planipennis were collected, counted, and sexed.
The two trapping experiments tested the (3Z)-lactone with and without (3Z)-hexenol, at different dosages and heights within the canopy. Experiment 1 was designed to determine the optimum release rate for attractiveness of (3Z)-lactone to male A. planipennis, in combination with (3Z)-hexenol. Dark green (540-nm wavelength) sticky traps (Francese et al 2010a) were suspended using ropes tied between two trees in the mid-canopy and baited with a (3Z)-hexenol lure at release rate of (50-100 mg/day) (Synergy Semiochemicals, Burnaby, B.C.) plus a rubber septum (Wheaton) loaded with either 0, 0.1 mg, 1.0 mg, 10.0 mg, or 50.0 mg of (3Z)-lactone. Respective release rates of the lactone were estimated as ˜2.4 μg/day; ˜22 μg/day; ˜160 μg/day; and −600 μg/day, based on volatile collections on Super-Q® at 25° C. (Silk et al. 2011). (3Z)-Lactone lures were estimated to last three weeks in the field and were replaced once. Trapping was conducted from 9 June-21 July. Lure treatments were replicated 10 times with eight blocks at one site (Anika Mills) and two blocks at a second site (Nauvoo Ranch). (3Z)-Hexenol lures were not changed during the experiment.
Numbers of A. planipennis captured in the trapping experiments were subjected to ANOVA separately for males and females. In experiment 1, ANOVA was used to test the effect of release rate on captures of females and males. Holm-Sidak comparisons were made between treatments and the control, (3Z)-hexenol alone. In experiment 2, we used the general linear model: mean catch=lactone+GLV+trap height+lactone*trap height+GLV*trap height+lactone*GLV+lactone*GLV*trap height+error, in SAS GLM (SAS Institute 1999-2003). Residuals were tested for homogeneity of variance and normality, and a ln(y+1) transformation was used where necessary. We present the untransformed last squares treatment means and their standard errors, along with statistics (P>F) from ANOVA of transformed data.

[2] = tested on: A. planipennis; assay: Field trapping 2011 experiment 2: (3Z)-lactone, (3Z)-hexenol and trap height factorial, dark green traps; assay type: in vivo, Agrilus planipennis; conditions: 2×2×2 factorial, lactone 3 mg/lure
Method: as §1, §2
Experiment 2 was a 2×2×2 factorial experiment designed to test the effects of (3Z)-lactone, (3Z)-hexenol, trap height, and their interactions on numbers of A. planipennis captured on sticky, dark green (540-nm wavelength) (Francese et al 2010a) prism traps. Traps were baited with either (3Z)-lactone, (3Z)-hexenol, (3Z)-lactone+(3Z)-hexenol, or neither compound (unbaited control) and all treatments were deployed both below the canopy or in the mid-canopy. Traps placed below the canopy were suspended from ropes tied between two trees so the trap was 1-1.5 m from either tree and the top of the trap was 1.5-2 m above the ground. Traps in the canopy were deployed from a single line looped over a mid-canopy branch such that traps were 1-1.5 m from the main stem and their tops were 6 m above ground. (3Z)-Lactone was loaded onto rubber septa lures at a dosage of 3 mg/lure. Release rates of the (3Z)-lactone and (3Z)-hexenol were 60-70 μg/day and 50-100 mg/day, respectively at 25° C. Traps were in the field from 8 June-5 August, with one block at one site (Nauvoo Ranch), 5 blocks at a second site (LaSalle, the one white ash plantation), and 4 blocks at a third site (Brook Line). The 3 mg (3Z)-lactone lures were estimated to maintain adequate release rates for a minimum of three weeks and thus were replaced after three weeks; (3Z)-hexenol lures were not replaced during the experiment.
Numbers of A. planipennis captured in the trapping experiments were subjected to ANOVA separately for males and females. […]

Structure (SMILES): O=C1C/C=C\CCCCCCCCO1 [(3Z)-lactone, (3Z)-dodecen-12-olide]
- release rate beyond which captures of males decline ([1]; dark green traps): ca. 160 μg/day
- trap capture of males, effect of (3Z)-lactone release rate ([1]; 0-50.0 mg lures, p=0.035): varied significantly with (3Z)-lactone release rate
- trap capture of females, effect of (3Z)-lactone release rate ([1]; 0-50.0 mg lures, p=0.315): not influenced by (3Z)-lactone release rate
- captures of males compared to (3Z)-hexenol alone, 0.1 mg dose ([1]; 0.1 mg lure, release rate 2.4 μg/day at 25° C., p=0.003): highest
- captures of males compared to (3Z)-hexenol alone, 1.0 mg dose ([1]; 1.0 mg lure, p=0.052): marginal increase in captures of males
- mean capture of males per trap, effect of presence of the lure component [2]: significantly and positively affected
- mean catch of females, effect of the lure component [2]: not
